These compounds were tested on AM2.2-GPR32 FAP cells, fluorogen binding, flow cytometry MCF (assay: interference with FAP fluorogen signal – AM2.2 cells, flow cytometry, powder set 5, counter-screen for beta2AR agonist internalization project, dose response (AID 651914)).

Q: Which EC50 does the source give for `CN(CC(=O)N1CCN(c2ccc(F)cc2)CC1)S(=O)(=O)c1ccc(Br)cc1` here?
A: The EC50 was 410 nM.

Q: For `CCC(=O)Nc1ccc(S(=O)(=O)N2CCCCC2CC)cc1` (stereo not drawn), which EC50 is on record?
A: Its EC50 is 7.5 nM.

Q: For `Cc1cccc(C(=O)Nc2ccc(S(=O)(=O)N3CCCCC3C)cc2)c1` (stereo not drawn), which EC50 is on record?
A: The EC50 was 2900 nM.

From PubChem BioAssay AID651914 (NMMLSC, 2012)
